Consider 23 molecules from PubChem BioAssay AID248 (DTP/NCI, 2004).

The subject of this assay is L1210 leukemia ip in BDF1 mice, survival T/C. As to the kind of experiment: NCI In Vivo Anticancer Drug Screen. Data for tumor model L1210 Leukemia (intraperitoneal) in B6D2F1 (BDF1) mice. The conditions noted are these: endpoint: mean survival time, higher = longer survival. An outline of the steps:
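Transplantable tumor model; survival measured in treated vs vehicle control mice. Value = treated/control.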

Setting [1] is: dose: 100.0 mg/kg/injection, schedule: Q01DX001 (ip), vehicle: saline.
Where [2] appears, read: dose: 100.0 mg/kg/injection, schedule: Q04DX003 (ip), vehicle: saline.
The mark [3] stands for this setting: dose: 200.0 mg/kg/injection, schedule: Q01DX001 (ip), vehicle: saline.
Setting [4] is: dose: 200.0 mg/kg/injection, schedule: Q04DX003 (ip), vehicle: saline.
Where [5] appears, read: dose: 400.0 mg/kg/injection, schedule: Q01DX001 (ip), vehicle: saline.
Setting [6] is: dose: 400.0 mg/kg/injection, schedule: Q04DX003 (ip), vehicle: saline.
The mark [7] stands for this setting: dose: 100.0 mg/kg/injection, schedule: Q04DX003 (ip), vehicle: Klucel (hydroxypropylcellulose) (HPC).
The mark [8] stands for this setting: dose: 200.0 mg/kg/injection, schedule: Q04DX003 (ip), vehicle: Klucel (hydroxypropylcellulose) (HPC).
[9] abbreviates: dose: 400.0 mg/kg/injection, schedule: Q04DX003 (ip), vehicle: Klucel (hydroxypropylcellulose) (HPC).
The mark [10] stands for this setting: dose: 25.0 mg/kg/injection, schedule: Q01DX009 (ip), vehicle: carboxymethylcellulose (CMC).
Setting [11] is: dose: 50.0 mg/kg/injection, schedule: Q01DX009 (ip), vehicle: carboxymethylcellulose (CMC).
Setting [12] is: dose: 50.0 mg/kg/injection, schedule: Q01DX009 (ip), vehicle: saline.
Where [13] appears, read: dose: 100.0 mg/kg/injection, schedule: Q01DX009 (ip), vehicle: saline.
[14] abbreviates: dose: 100.0 mg/kg/injection, schedule: Q01DX009 (ip), vehicle: Klucel (hydroxypropylcellulose) (HPC).
The mark [15] stands for this setting: dose: 200.0 mg/kg/injection, schedule: Q01DX009 (ip), vehicle: Klucel (hydroxypropylcellulose) (HPC).
[16] abbreviates: dose: 400.0 mg/kg/injection, schedule: Q01DX009 (ip), vehicle: Klucel (hydroxypropylcellulose) (HPC).
Setting [17] is: dose: 50.0 mg/kg/injection, schedule: Q01DX009 (ip), vehicle: saline with Tween-80.
[18] abbreviates: dose: 100.0 mg/kg/injection, schedule: Q01DX009 (ip), vehicle: saline with Tween-80.
The mark [19] stands for this setting: dose: 100.0 mg/kg/injection, schedule: Q01DX001 (ip), vehicle: Klucel (hydroxypropylcellulose) (HPC).
The mark [20] stands for this setting: dose: 200.0 mg/kg/injection, schedule: Q01DX001 (ip), vehicle: Klucel (hydroxypropylcellulose) (HPC).

Where “and” joins values, the source holds several entries; their conditions need not be identical. Identical values can stand only once. Toxic doses and inconclusive results are not listed.

As for `CC(C)C1=CC2=CCC3C(C)(CN)CCCC3(C)C2CC1CCN` (configuration not stated), the T/C reads like this: (dose: 1.25 mg/kg/injection, schedule: Q04DX003 (ip), vehicle: saline) 100 % of control; (dose: 2.5 mg/kg/injection, schedule: Q04DX003 (ip), vehicle: saline) 108 % of control; (dose: 5.0 mg/kg/injection, schedule: Q04DX003 (ip), vehicle: saline with Tween-80) 96 % of control; (dose: 5.0 mg/kg/injection, schedule: Q04DX003 (ip), vehicle: saline) 101 % of control.
Regarding `COC(=O)c1ccccc1NN=Nc1ccccc1Cl`, the T/C runs as follows: under setting [1], 100 % of control; under setting [2], 105 % of control; under setting [3], 90 % of control; under setting [4], 95 % of control; under setting [5], 99 % of control; under setting [6], 94 % of control.
Turning to `O=c1ccn(CCC(COCc2ccccc2)COCc2ccccc2)c(=O)[nH]1`, the T/C by setting is: under setting [7], 96 % of control; under setting [8], 101 % of control; under setting [9], 101 % of control.
On to `COC1C(CO)OC(n2cnc3c(=S)nc(N)[nH]c32)C1O` (configuration not stated), for which the T/C under setting [10] is 105 % of control; the T/C (dose: 25.0 mg/kg/injection, schedule: Q01DX009 (ip), vehicle: saline) was 100 % of control; the T/C under setting [11] was 103 % of control; the T/C under setting [12] was 116 % of control; the T/C (dose: 100.0 mg/kg/injection, schedule: Q01DX001 (ip), vehicle: carboxymethylcellulose (CMC)) is 111 % of control; the T/C under setting [13] was 157 % of control. Besides, the T/C by setting is: (dose: 200.0 mg/kg/injection, schedule: Q01DX009 (ip), vehicle: carboxymethylcellulose (CMC)) 155 % of control; (dose: 200.0 mg/kg/injection, schedule: Q01DX009 (ip), vehicle: saline) 168 % of control; (dose: 400.0 mg/kg/injection, schedule: Q01DX001 (ip), vehicle: carboxymethylcellulose (CMC)) 154 % of control and 158 % of control.
`CCCCCCCN(CCCCCCC)CC(O)c1cc2ccc(Cl)cc2nc1-c1ccc(Cl)cc1` (configuration not stated): the T/C is, setting by setting: under setting [14], 87 % of control; under setting [15], 97 % of control; under setting [16], 87 % of control.
In the case of `CN(C(=O)COc1ccc([N+](=O)[O-])cc1Cl)c1ccc(S(=O)(=O)F)cc1`, the T/C runs as follows: under setting [2], 104 % of control; under setting [4], 95 % of control; under setting [6], 96 % of control.
As to `CSCSCC(CO)NCc1ccccc1` (configuration not stated), the T/C runs as follows: under setting [12], 110 % of control; under setting [1], 97 % of control; under setting [13], 104 % of control; under setting [3], 100 % of control.
As for `O=C(Nc1cccc(F)c1)Nc1cc(C(F)(F)F)ccc1Cl`, the T/C runs as follows: under setting [17], 96 % of control; under setting [18], 95 % of control and 97 % of control; (dose: 200.0 mg/kg/injection, schedule: Q01DX009 (ip), vehicle: saline with Tween-80) 96 % of control; (dose: 400.0 mg/kg/injection, schedule: Q01DX009 (ip), vehicle: saline with Tween-80) 88 % of control.
Consider `O=C(C(=O)N1CC1)c1c[nH]c2ccccc12`, for which the T/C runs as follows: (dose: 25.0 mg/kg/injection, schedule: Q04DX003 (ip), vehicle: saline with Tween-80) 95 % of control; (dose: 50.0 mg/kg/injection, schedule: Q04DX003 (ip), vehicle: saline with Tween-80) 91 % of control; (dose: 100.0 mg/kg/injection, schedule: Q04DX003 (ip), vehicle: saline with Tween-80) 95 % of control.
Regarding `CCOC(OCC)n1ncnc1NC(=S)NCc1ccccc1`, the T/C reads like this: (dose: 50.0 mg/kg/injection, schedule: Q04DX003 (ip), vehicle: saline) 100 % of control; under setting [2], 100 % of control; under setting [4], 97 % of control.
For `CS(=O)c1ccc(/C=C2/C=Cc3ccccc32)cc1` (configuration not stated), the T/C under setting [14] was 91 % of control, the T/C under setting [15] is 103 % of control and the T/C under setting [16] is 101 % of control.
For the molecule `S=P(NCCNP(=S)(N1CC1)N1CC1)(N1CC1)N1CC1`, the T/C was 96 % of control (dose: 1.5 mg/kg/injection, schedule: Q01DX015 (ip), vehicle: saline); 98 % of control (dose: 3.0 mg/kg/injection, schedule: Q01DX015 (ip), vehicle: saline); 101 % of control (dose: 6.0 mg/kg/injection, schedule: Q01DX015 (ip), vehicle: saline); 104 % of control (dose: 12.0 mg/kg/injection, schedule: Q01DX009 (ip), vehicle: carboxymethylcellulose (CMC)); 102 % of control (dose: 12.0 mg/kg/injection, schedule: Q01DX015 (ip), vehicle: saline); 108 % of control (dose: 12.5 mg/kg/injection, schedule: Q01DX009 (ip), vehicle: Klucel (hydroxypropylcellulose) (HPC)). Moreover, the T/C is 112 % of control (dose: 12.5 mg/kg/injection, schedule: Q01DX009 (ip), vehicle: saline); 120 % of control (dose: 25.0 mg/kg/injection, schedule: Q01DX009 (ip), vehicle: Klucel (hydroxypropylcellulose) (HPC)); 121 % of control under setting [10]; 97 % of control (dose: 50.0 mg/kg/injection, schedule: Q01DX009 (ip), vehicle: Klucel (hydroxypropylcellulose) (HPC)); 115 % of control under setting [11]; 106 % of control under setting [1]. The T/C reads like this: (dose: 100.0 mg/kg/injection, schedule: Q01DX009 (ip), vehicle: carboxymethylcellulose (CMC)) 109 % of control; under setting [13], 120 % of control; under setting [3], 104 % of control; under setting [5], 120 % of control.
On to `CCCc1nc2ccccc2c(=O)n1/N=C/c1ccc(OC)cc1`, for which the T/C runs as follows: (dose: 100.0 mg/kg/injection, schedule: Q04DX002 (ip), vehicle: Klucel (hydroxypropylcellulose) (HPC)) 96 % of control; (dose: 200.0 mg/kg/injection, schedule: Q04DX002 (ip), vehicle: Klucel (hydroxypropylcellulose) (HPC)) 99 % of control; (dose: 400.0 mg/kg/injection, schedule: Q04DX002 (ip), vehicle: Klucel (hydroxypropylcellulose) (HPC)) 101 % of control.
With `COc1cc(/C=C2\C(=O)NC(=O)N(c3ccccc3)C2=O)cc(OC)c1OC`, the T/C is, setting by setting: under setting [17], 101 % of control; under setting [18], 100 % of control.
Take `Ic1ccc(Oc2ccc(I)cc2)cc1`: the T/C reads like this: under setting [7], 113 % of control; under setting [8], 90 % of control; (dose: 222.0 mg/kg/injection, schedule: Q01DX Z (ip), vehicle: methylcellulose (MC)) 92 % of control; (dose: 333.0 mg/kg/injection, schedule: Q01DX Z (ip), vehicle: methylcellulose (MC)) 92 % of control; under setting [9], 98 % of control; (dose: 500.0 mg/kg/injection, schedule: Q01DX Z (ip), vehicle: methylcellulose (MC)) 100 % of control.
Regarding `Cc1ccc(S(=O)(=O)NNS(=O)(=O)c2ccc(C)cc2)cc1`, the T/C by setting is: under setting [19], 109 % of control; under setting [20], 109 % of control.
Take `Cc1nc(SC(=N)N)nc2c1CCO2`: the T/C by setting is: under setting [1], 96 % of control; under setting [3], 97 % of control; under setting [5], 88 % of control.
For the molecule `O=C(Nc1cccc(O)c1)Nc1ccc(Cl)cc1[N+](=O)[O-]`, the T/C is 102 % of control under setting [14] and 101 % of control under setting [15].
Take `CSc1ccnc2n[nH]nc12`: the T/C by setting is: under setting [19], 102 % of control; under setting [7], 94 % of control; under setting [20], 104 % of control; under setting [8], 101 % of control.
Take `O=[N+]([O-])c1ccc(C2SCSCS2)cc1`: the T/C under setting [7] is 98 % of control; the T/C under setting [15] is 90 % of control; the T/C under setting [8] was 93 % of control; the T/C under setting [16] was 95 % of control; the T/C under setting [9] was 93 % of control.
With `CC(C)NC(=O)Oc1ccc(Br)cc1Br`, the T/C under setting [14] is 109 % of control, the T/C under setting [15] was 104 % of control and the T/C under setting [16] was 113 % of control.
As to `CC(C)(C)NC(=O)Nc1cccc(C(=O)O)c1`, the T/C was 97 % of control under setting [14], 109 % of control under setting [15] and 101 % of control under setting [16].
Consider `O=C(OCc1ccc([N+](=O)[O-])o1)c1ccc(Cl)cc1`, for which the T/C under setting [1] is 97 % of control, the T/C under setting [3] is 101 % of control and the T/C under setting [5] is 92 % of control.
